ChEMBL document CHEMBL1147908, “Preparation of novel anthranilic acids as antibacterial agents. Extensive evaluation of alternative amide bioisosteres connecting the A- and the B-rings” (2007)
Converted amounts (≈) assume the structure as drawn.

What was measured:
Type in all cases: functional
[1] = system: Staphylococcus aureus; assay: Antibacterial activity against Staphylococcus aureus UC 9218
[2] = system: Streptococcus pneumoniae; assay: Antibacterial activity against Streptococcus pneumoniae UC 9912
[3] = system: Staphylococcus epidermidis; assay: Antibacterial activity against Staphylococcus epidermidis UC 12084
[4] = system: Haemophilus influenzae; assay: Antibacterial activity against Haemophilus influenzae 30063
[5] = system: Enterococcus faecalis; assay: Antibacterial activity against Enterococcus faecalis UC 9217

| SMILES | MIC [1] [µg/mL] | MIC [2] [µg/mL] | MIC [3] [µg/mL] | MIC [4] [µg/mL] | MIC [5] [µg/mL] |
| --- | --- | --- | --- | --- | --- |
| N#Cc1ccc(C=Cc2cccc(S(=O)(=O)N3CCc4cc(Cl)ccc43)c2)c(C(=O)O)c1 | 16 (≈ 34.4 µM) | 64 (≈ 138 µM) | 32 (≈ 68.8 µM) | > 128 | > 128 |
| O=C(O)c1cc(Cl)ccc1-c1ccc(S(=O)(=O)N2CCc3cc(Cl)ccc32)cc1 | 128 (≈ 286 µM) | > 128 | 128 (≈ 286 µM) | > 128 | > 128 |
| N#Cc1ccc(/C=C/c2cccc(S(=O)(=O)N3CCc4cc(Cl)ccc43)c2)c(C(=O)O)c1 | 0.25 (≈ 0.538 µM) | > 128 | 0.5 (≈ 1.08 µM) | > 128 | 128 (≈ 275 µM) |
| N#Cc1ccc([C@H]2C[C@@H]2c2cccc(S(=O)(=O)N3CCc4cc(Cl)ccc43)c2)c(C(=O)O)c1 | 4 (≈ 8.35 µM) | > 128 | 8 (≈ 16.7 µM) | 16 (≈ 33.4 µM) | > 128 |
| N#Cc1ccc(NC(=S)c2cccc(S(=O)(=O)N3CCc4cc(Cl)ccc43)c2)c(C(=O)O)c1 | 0.125 (≈ 0.251 µM) | 16 (≈ 32.1 µM) | 0.125 (≈ 0.251 µM) | 64 (≈ 129 µM) | 32 (≈ 64.3 µM) |
| O=C(O)c1cc(Cl)ccc1CCc1ccc(S(=O)(=O)N2CCc3cc(Cl)ccc32)cc1 | 32 (≈ 67.2 µM) | 32 (≈ 67.2 µM) | 32 (≈ 67.2 µM) | > 128 | > 128 |

Now from value to compound:

| MIC [1] [µg/mL] | MIC [2] [µg/mL] | MIC [3] [µg/mL] | MIC [4] [µg/mL] | MIC [5] [µg/mL] | SMILES |
| --- | --- | --- | --- | --- | --- |
| > 128 | > 128 | 64 (≈ 159 µM) | > 128 | > 128 | Cc1ccc(S(=O)(=O)Nc2ccc(-c3ccc(Cl)cc3)c(C(=O)O)c2)cc1 |
| > 128 | > 128 | > 128 | > 128 | > 128 | O=C(O)c1cc(Br)ccc1-c1nnc(-c2ccccc2)o1 |
| > 128 | > 128 | > 128 | > 128 | > 128 | O=C(O)c1cc(Br)ccc1-c1nnc(-c2ccccc2)[nH]1 |
| 0.5 (≈ 0.933 µM) | 4 (≈ 7.47 µM) | 4 (≈ 7.47 µM) | 128 (≈ 239 µM) | 32 (≈ 59.7 µM) | O=C(Nc1ccc(Br)cc1C(=O)O)c1ccc(S(=O)(=O)N2CCc3cc(Cl)ccc32)cc1 |
